# What was measured:
# Format in all cases: in vivo
# [1] = test system: Surinam grass (Brachiaria decumbens); assay: Test B postemergence; details: 13 to 15 days
# Outline: (§1)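 Greenhouse test: chemicals are formulated in a surfactant-containing non-phytotoxic solvent and applied either preemergence to planted seeds or postemergence to plants 2 to 18 cm tall. Response is rated visually versus controls after 13 to 15 days, 0 meaning no effect and 100 complete control.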
# [2] = test system: barnyardgrass (Echinochloa crus-galli); assay: Test B postemergence; details: 13 to 15 days
# Outline: as §1
# [3] = test system: blackgrass (Alopecurus myosuroides); assay: Test B postemergence; details: 13 to 15 days
# Outline: as §1
# [4] = test system: cocklebur (Xanthium strumarium); assay: Test B postemergence; details: 13 to 15 days
# Outline: as §1
# [5] = test system: corn (Zea mays); assay: Test B postemergence; details: 13 to 15 days
# Outline: as §1
# [6] = test system: crabgrass (Digitaria sanguinalis); assay: Test B postemergence; details: 13 to 15 days
# Outline: as §1
# [7] = test system: giant foxtail (Setaria faberii); assay: Test B postemergence; details: 13 to 15 days
# Outline: as §1
# [8] = test system: lambsquarters (Chenopodium album); assay: Test B postemergence; details: 13 to 15 days
# Outline: as §1
# [9] = test system: morning glory (Ipomoea hederacea); assay: Test B postemergence; details: 13 to 15 days
# Outline: as §1
# [10] = test system: pigweed (Amaranthus retroflexus); assay: Test B postemergence; details: 13 to 15 days
# Outline: as §1
# [11] = test system: velvetleaf (Abutilon theophrasti); assay: Test B postemergence; details: 13 to 15 days
# Outline: as §1
# [12] = test system: wheat (Triticum aestivum); assay: Test B postemergence; details: 13 to 15 days
# Outline: as §1
# [13] = test system: wild oat (Avena fatua); assay: Test B postemergence; details: 13 to 15 days
# Outline: as §1
# [14] = test system: Surinam grass (Brachiaria decumbens); assay: Test B preemergence
# Outline: as §1
# [15] = test system: barnyardgrass (Echinochloa crus-galli); assay: Test B preemergence
# Outline: as §1
# [16] = test system: cocklebur (Xanthium strumarium); assay: Test B preemergence
# Outline: as §1
# [17] = test system: corn (Zea mays); assay: Test B preemergence
# Outline: as §1
# [18] = test system: crabgrass (Digitaria sanguinalis); assay: Test B preemergence
# Outline: as §1
# [19] = test system: giant foxtail (Setaria faberii); assay: Test B preemergence
# Outline: as §1
# [20] = test system: lambsquarters (Chenopodium album); assay: Test B preemergence
# Outline: as §1
# [21] = test system: morning glory (Ipomoea hederacea); assay: Test B preemergence
# Outline: as §1
# [22] = test system: pigweed (Amaranthus retroflexus); assay: Test B preemergence
# Outline: as §1
# [23] = test system: rice (Oryza saliva); assay: Test B preemergence
# Outline: as §1
# [24] = test system: velvetleaf (Abutilon theophrasti); assay: Test B preemergence
# Outline: as §1
# [25] = test system: Nightshade; assay: Test C preemergence; details: visual evaluation after 12 to 14 days
# [26] = test system: Sunflower; assay: Test C preemergence; details: Rate 125 g/ha, scale 0 to 100, 0 no effect, 100 complete control
# [27] = Rate 125 g/ha, scale 0 (no effect) to 100 (complete control)
# [28] = Rate 500 g/ha, scale 0 to 100, 0 is no effect, 100 is complete control
# [29] = Preemergence, Rate 500 g/ha, scale 0 to 100, 0 no effect, 100 complete control
# [30] = preemergence, Rate 125 g/ha, scale of 0 to 100 where 0 is no effect and 100 is complete control, 13 to 15 days
structure (smiles),measurement,setting,value
O=C1C(n2ccc(C3CCCCC3)n2)SCN1c1cccc(C(F)(F)F)c1 (centres unmarked) [Compound 52],"Plant response rating, Surinam grass",[1]; [27],0
same,"Plant response rating, Surinam grass",[1]; [28],0
same,"Plant response rating, Barnyardgrass",[2]; [27],0
same,"Plant response rating, Barnyardgrass",[2]; [28],0
same,"Plant response rating, Blackgrass",[3]; [27],0
same,"Plant response rating, Blackgrass",[3]; [28],0
same,"Plant response rating, Cocklebur",[4]; [27],0
same,"Plant response rating, Cocklebur",[4]; [28],0
same,"Plant response rating, Corn",[5]; [27],20
same,"Plant response rating, Corn",[5]; [28],20
same,"Plant response rating, Crabgrass",[6]; [27],0
same,"Plant response rating, Crabgrass",[6]; [28],0
same,"Plant response rating, Foxtail, Giant",[7]; [27],0
same,"Plant response rating, Foxtail, Giant",[7]; [28],0
same,"Plant response rating, Lambsquarters",[8]; [27],0
same,"Plant response rating, Lambsquarters",[8]; [28],0
same,"Plant response rating, Morningglory",[9]; [27],0
same,"Plant response rating, Morningglory",[9]; [28],0
same,"Plant response rating, Pigweed",[10]; [27],0
same,"Plant response rating, Pigweed",[10]; [28],0
same,"Plant response rating, Velvetleaf",[11]; [27],0
same,"Plant response rating, Velvetleaf",[11]; [28],0
same,"Plant response rating, Wheat",[12]; [27],0
same,"Plant response rating, Wheat",[12]; [28],0
same,"Plant response rating, Wild Oat",[13]; [27],0
same,"Plant response rating, Wild Oat",[13]; [28],0
same,"Plant response rating, Surinam grass",[14]; [29],0
same,"Plant response rating, Surinam grass",[14]; [30],0
same,"Plant response rating, Barnyardgrass",[15]; [29],100
same,"Plant response rating, Barnyardgrass",[15]; [30],0
same,"Plant response rating, Cocklebur",[16]; [29],0
same,"Plant response rating, Cocklebur",[16]; [30],0
same,"Plant response rating, Corn",[17]; [29],20
same,"Plant response rating, Corn",[17]; [30],0
same,"Plant response rating, Crabgrass",[18]; [29],100
same,"Plant response rating, Crabgrass",[18]; [30],100
same,"Plant response rating, Foxtail, Giant",[19]; [29],100
same,"Plant response rating, Foxtail, Giant",[19]; [30],90
same,"Plant response rating, Lambsquarters",[20]; [29],100
same,"Plant response rating, Lambsquarters",[20]; [30],100
same,"Plant response rating, Morningglory",[21]; [29],0
same,"Plant response rating, Morningglory",[21]; [30],0
same,"Plant response rating, Pigweed",[22]; [29],30
same,"Plant response rating, Pigweed",[22]; [30],0
same,"Plant response rating, Rice",[23]; [29],0
same,"Plant response rating, Rice",[23]; [30],0
same,"Plant response rating, Velvetleaf",[24]; [29],0
same,"Plant response rating (0 to 100), Nightshade",[25]; Rate 250 g/ha,30
same,"Plant response rating, Sunflower",[26],0
CC(C)(C)c1ccn(C2CCN(c3ccc(Cl)c(Br)c3)C2=O)n1 (centres unmarked) [Compound 56],"Plant response rating, Surinam grass",[1]; [27],0
same,"Plant response rating, Surinam grass",[1]; [28],0
same,"Plant response rating, Barnyardgrass",[2]; [27],0
same,"Plant response rating, Barnyardgrass",[2]; [28],0
same,"Plant response rating, Blackgrass",[3]; [27],0
same,"Plant response rating, Blackgrass",[3]; [28],0
same,"Plant response rating, Cocklebur",[4]; [27],0
same,"Plant response rating, Cocklebur",[4]; [28],0
same,"Plant response rating, Corn",[5]; [27],0
same,"Plant response rating, Corn",[5]; [28],0
same,"Plant response rating, Crabgrass",[6]; [27],0
same,"Plant response rating, Crabgrass",[6]; [28],0
same,"Plant response rating, Foxtail, Giant",[7]; [27],0
same,"Plant response rating, Foxtail, Giant",[7]; [28],0
same,"Plant response rating, Lambsquarters",[8]; [27],80
same,"Plant response rating, Lambsquarters",[8]; [28],90
same,"Plant response rating, Morningglory",[9]; [27],0
same,"Plant response rating, Morningglory",[9]; [28],10
same,"Plant response rating, Pigweed",[10]; [27],90
same,"Plant response rating, Pigweed",[10]; [28],90
same,"Plant response rating, Velvetleaf",[11]; [27],0
same,"Plant response rating, Velvetleaf",[11]; [28],0
same,"Plant response rating, Wheat",[12]; [27],0
same,"Plant response rating, Wheat",[12]; [28],0
same,"Plant response rating, Wild Oat",[13]; [27],0
same,"Plant response rating, Wild Oat",[13]; [28],0
same,"Plant response rating, Surinam grass",[14]; [29],30
same,"Plant response rating, Surinam grass",[14]; [30],30
same,"Plant response rating, Barnyardgrass",[15]; [29],50
same,"Plant response rating, Barnyardgrass",[15]; [30],0
same,"Plant response rating, Cocklebur",[16]; [30],0
same,"Plant response rating, Corn",[17]; [29],0
same,"Plant response rating, Corn",[17]; [30],0
same,"Plant response rating, Crabgrass",[18]; [29],100
same,"Plant response rating, Crabgrass",[18]; [30],30
same,"Plant response rating, Foxtail, Giant",[19]; [29],90
same,"Plant response rating, Foxtail, Giant",[19]; [30],50
same,"Plant response rating, Lambsquarters",[20]; [29],100
same,"Plant response rating, Lambsquarters",[20]; [30],100
same,"Plant response rating, Morningglory",[21]; [29],0
same,"Plant response rating, Morningglory",[21]; [30],0
same,"Plant response rating, Pigweed",[22]; [29],100
same,"Plant response rating, Pigweed",[22]; [30],100
same,"Plant response rating, Rice",[23]; [29],0
same,"Plant response rating, Rice",[23]; [30],0
same,"Plant response rating, Velvetleaf",[24]; [29],0
same,"Plant response rating, Velvetleaf",[24]; [30],0
same,"Plant response rating (0 to 100), Nightshade",[25]; Rate 250 g/ha,0
same,"Plant response rating, Sunflower",[26],0
CC1(c2ccn(C3OCN(c4cccc(C(F)(F)F)c4)C3=O)n2)CC1 (centres unmarked) [Compound 62],"Plant response rating, Surinam grass",[1]; [27],0
same,"Plant response rating, Surinam grass",[1]; [28],0
same,"Plant response rating, Barnyardgrass",[2]; [27],0
same,"Plant response rating, Barnyardgrass",[2]; [28],0
same,"Plant response rating, Blackgrass",[3]; [27],0
same,"Plant response rating, Blackgrass",[3]; [28],0
same,"Plant response rating, Cocklebur",[4]; [27],0
same,"Plant response rating, Cocklebur",[4]; [28],0
same,"Plant response rating, Corn",[5]; [27],0
same,"Plant response rating, Corn",[5]; [28],0
same,"Plant response rating, Crabgrass",[6]; [27],0
same,"Plant response rating, Crabgrass",[6]; [28],0
same,"Plant response rating, Foxtail, Giant",[7]; [27],0
same,"Plant response rating, Foxtail, Giant",[7]; [28],0
same,"Plant response rating, Lambsquarters",[8]; [27],0
same,"Plant response rating, Lambsquarters",[8]; [28],60
same,"Plant response rating, Morningglory",[9]; [27],0
same,"Plant response rating, Morningglory",[9]; [28],0
same,"Plant response rating, Pigweed",[10]; [27],0
same,"Plant response rating, Pigweed",[10]; [28],40
same,"Plant response rating, Velvetleaf",[11]; [27],0
same,"Plant response rating, Velvetleaf",[11]; [28],0
same,"Plant response rating, Wheat",[12]; [27],0
same,"Plant response rating, Wheat",[12]; [28],0
same,"Plant response rating, Wild Oat",[13]; [27],0
same,"Plant response rating, Wild Oat",[13]; [28],0
same,"Plant response rating, Surinam grass",[14]; [29],0
same,"Plant response rating, Surinam grass",[14]; [30],0
same,"Plant response rating, Barnyardgrass",[15]; [29],90
same,"Plant response rating, Barnyardgrass",[15]; [30],0
same,"Plant response rating, Cocklebur",[16]; [29],0
same,"Plant response rating, Cocklebur",[16]; [30],0
same,"Plant response rating, Corn",[17]; [29],0
same,"Plant response rating, Corn",[17]; [30],0
same,"Plant response rating, Crabgrass",[18]; [29],90
same,"Plant response rating, Crabgrass",[18]; [30],0
same,"Plant response rating, Foxtail, Giant",[19]; [29],80
same,"Plant response rating, Foxtail, Giant",[19]; [30],0
same,"Plant response rating, Lambsquarters",[20]; [29],100
same,"Plant response rating, Lambsquarters",[20]; [30],100
same,"Plant response rating, Morningglory",[21]; [29],0
same,"Plant response rating, Morningglory",[21]; [30],0
same,"Plant response rating, Pigweed",[22]; [29],100
same,"Plant response rating, Pigweed",[22]; [30],100
same,"Plant response rating, Rice",[23]; [29],30
same,"Plant response rating, Rice",[23]; [30],0
same,"Plant response rating, Velvetleaf",[24]; [29],0
same,"Plant response rating, Velvetleaf",[24]; [30],0
same,"Plant response rating (0 to 100), Nightshade",[25]; Rate 250 g/ha,0
same,"Plant response rating (0 to 100), Nightshade",[25]; Rate 500 g/ha,0
same,"Plant response rating, Sunflower",[26],0
